Reference: US9233981B1, “Substituted phenyl hexahydropyrano[3,4-d][1,3]thiazin-2-amine compounds” (Pfizer Inc., priority 2013, dated 2016)

How the values were obtained:
BACE1 enzyme = BACE1 enzyme (Homo sapiens (Human), UniProt P56817); experiment: BACE1 Cell-Free Assay (fluorescence polarization, cleavage of synthetic APP substrate); format: biochemical; conditions: geometric mean of 2-3 determinations; Examples 32-34 (footnote b) single determination
Source text: Beta-secretase (BACE) is one of the enzymes involved in the generation of the amyloid beta peptide found in the amyloid plaques of Alzheimer's Disease patients. This assay measures the inhibition of the beta-secretase enzyme as it cleaves a non-native peptide.
A synthetic APP substrate that can be cleaved by beta-secretase having N-terminal biotin and made fluorescent by the covalent attachment of Oregon Green at the Cys residue is used to assay beta-secretase activity in the presence or absence of the inhibitory compounds. The substrate is Biotin-GLTNIKTEEISEISY^EVEFR-C[Oregon Green]KK-OH. The BACE1 enzyme is affinity purified material from conditioned media of CHO-K1 cells that have been transfected with a soluble BACE construct (BACE1deltaTM96His). Compounds are incubated in a log dose response curve from a top concentration of 100 μM with BACE1 enzyme and the biotinylated fluorescent peptide in 384-well black plates (Thermo Scientific #4318). BACE1 is at a final concentration of 0.1 nM with a final concentration of peptide substrate of 150 nM in a reaction volume of 30 μL assay buffer [100 mM sodium acetate, pH 4.5 (brought to pH with acetic acid), and 0.001% Tween-20]. Plates are covered and incubated for 3 hours at 37° C. The reaction is stopped with the addition of 30 μL of 1.5 μM Streptavidin (Pierce, #21125). After a 10 minute incubation at room temperature, plates are read on a PerkinElmer EnVision for fluorescence polarization (Ex485 nm/Em530 nm). The activity of the beta-secretase enzyme is detected by changes in the fluorescence polarization that occur when the substrate is cleaved by the enzyme.

[1] = test system: sAPPβ levels in H4 human neuroglioma cells over-expressing the wild-type human APP695; experiment: Whole Cell Assay (In Vitro sAPPβ Assay), TMB-ELISA; format: cell-based; conditions: 18 hours, geometric mean of 2-3 determinations, Examples 32-34 (footnote b) single determination
Protocol: Whole Cell Assay (In Vitro sAPPpβ Assay):
H4 human neuroglioma cells over-expressing the wild-type human APP695 are treated for 18 hours with compound in a final concentration 1% DMSO. sAPPβ levels are measured using TMB-ELISA with capture APP N-terminal antibody (Affinity BioReagents, OMA1-03132), wild-type sAPPβ specific reporter p192 (Elan), and tertiary anti rabbit-HRP (GE Healthcare).

Chain of BACE1 enzyme (P56817 46-457): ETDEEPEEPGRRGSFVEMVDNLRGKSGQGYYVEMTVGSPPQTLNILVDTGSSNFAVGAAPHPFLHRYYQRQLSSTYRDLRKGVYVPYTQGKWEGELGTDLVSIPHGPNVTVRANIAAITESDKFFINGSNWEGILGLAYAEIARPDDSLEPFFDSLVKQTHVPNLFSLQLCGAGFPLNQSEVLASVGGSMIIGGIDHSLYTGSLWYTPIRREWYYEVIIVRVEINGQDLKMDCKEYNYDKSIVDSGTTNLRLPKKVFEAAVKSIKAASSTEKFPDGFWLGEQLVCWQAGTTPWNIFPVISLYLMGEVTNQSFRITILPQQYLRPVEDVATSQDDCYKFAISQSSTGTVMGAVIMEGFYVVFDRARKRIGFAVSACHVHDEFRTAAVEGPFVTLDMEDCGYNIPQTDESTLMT

SMILES	IC50 (BACE1 enzyme)	IC50 [1]
NC1=N[C@@]2(c3ccc(F)cc3F)CO[C@@H](c3ccc(F)c(F)c3)C[C@H]2CS1 [Example 5, (4aR,6R,8aS)-8a-(2,4-difluorophenyl)-6-(3,4-difluorophenyl)-4,4a,5,6,8,8a-hexahydropyrano[3,4-d][1,3]thiazin-2-amine]	10 nM	0.007 nM
COc1cc(F)cc([C@H]2C[C@H]3CSC(N)=N[C@@]3(c3ccc(F)cc3F)CO2)c1 [Example 21, (4aR,6R,8aS)-8a-(2,4-difluorophenyl)-6-(3-fluoro-5-methoxyphenyl)-4,4a,5,6,8,8a-hexahydropyrano[3,4-d][1,3]thiazin-2-amine]	335 nM	0.216 nM
C[C@H]1SC(N)=N[C@@]2(c3ccc(F)cc3F)CO[C@@H](c3ccc(F)cc3)C[C@@H]12 [Example 32, (4R,4aR,6R,8aS)-8a-(2,4-Difluorophenyl)-6-(4-fluorophenyl)-4-methyl-4,4a,5,6,8,8a-hexahydropyrano[3,4-d][1,3]thiazin-2-amine]	15 nM	0.004 nM
COc1ccc([C@H]2C[C@H]3CSC(N)=N[C@@]3(c3ccc(F)cc3F)CO2)cc1F [Example 19, (4aR,6R,8aS)-8a-(2,4-difluorophenyl)-6-(3-fluoro-4-methoxyphenyl)-4,4a,5,6,8,8a-hexahydropyrano[3,4-d][1,3]thiazin-2-amine]	44 nM	0.023 nM
NC1=N[C@@]2(c3ccc(F)cc3F)CO[C@@H](c3ccc(OC(F)(F)F)cc3)C[C@H]2CS1 [Example 15, (4aR,6R,8aS)-8a-(2,4-difluorophenyl)-6-[4-(trifluoromethoxy)phenyl]-4,4a,5,6,8,8a-hexahydropyrano[3,4-d][1,3]thiazin-2-amine]	21 nM	0.142 nM
C[C@H]1SC(N)=N[C@@]2(c3ccc(F)cc3F)CO[C@@H](c3cccc(C#N)c3)C[C@@H]12 [Example 34, (4R,4aR,6R,8aS)-8a-(2,4-Difluorophenyl)-6-(3-cyanophenyl)-4-methyl-4,4a,5,6,8,8a-hexahydropyrano[3,4-d][1,3]thiazin-2-amine]	14 nM	0.004 nM
CCOc1ccc([C@H]2C[C@H]3CSC(N)=N[C@@]3(c3ccc(F)cc3F)CO2)cc1 [Example 23, (4aR,6R,8aS)-8a-(2,4-difluorophenyl)-6-(4-ethoxyphenyl)-4,4a,5,6,8,8a-hexahydropyrano[3,4-d][1,3]thiazin-2-amine]	11 nM	0.021 nM
NC1=N[C@@]2(c3ccc(F)cc3F)CO[C@@H](c3ccc(C(F)(F)F)cc3)C[C@H]2CS1 [Example 14, (4aR,6R,8aS)-8a-(2,4-difluorophenyl)-6-[4-(trifluoromethyl)phenyl]-4,4a,5,6,8,8a-hexahydropyrano[3,4-d][1,3]thiazin-2-amine]		0.176 nM
COCc1cccc([C@H]2C[C@H]3CSC(N)=N[C@@]3(c3ccc(F)cc3F)CO2)c1 [Example 24, (4aR,6R,8aS)-8a-(2,4-difluorophenyl)-6-[3-(methoxymethyl)phenyl]-4,4a,5,6,8,8a-hexahydropyrano[3,4-d][1,3]thiazin-2-amine]	161 nM	0.071 nM
NC1=N[C@@]2(c3ccc(F)cc3F)CO[C@@H](c3cccc(F)c3)C[C@H]2CS1 [Example 2, (4aR,6R,8aS)-8a-(2,4-difluorophenyl)-6-(3-fluorophenyl)-4,4a,5,6,8,8a-hexahydropyrano[3,4-d][1,3]thiazin-2-amine]	22 nM	0.009 nM
COC(C)c1ccc([C@H]2C[C@H]3CSC(N)=N[C@@]3(c3ccc(F)cc3F)CO2)cc1 (stereo partly drawn) [Example 28, (4aR,6R,8aS)-8a-(2,4-difluorophenyl)-6-[4-(1-methoxyethyl)phenyl]-4,4a,5,6,8,8a-hexahydropyrano[3,4-d][1,3]thiazin-2-amine]	210 nM	0.055 nM

More lines, now with the values ahead:

IC50 (BACE1 enzyme)	IC50 [1]	SMILES
83 nM	0.039 nM	COc1ccc([C@H]2C[C@H]3CSC(N)=N[C@@]3(c3ccc(F)cc3F)CO2)c(F)c1 [Example 20, (4aR,6R,8aS)-8a-(2,4-difluorophenyl)-6-(2-fluoro-4-methoxyphenyl)-4,4a,5,6,8,8a-hexahydropyrano[3,4-d][1,3]thiazin-2-amine]
15 nM	0.016 nM	NC1=N[C@@]2(c3ccc(F)cc3F)CO[C@@H](c3ccc(Cl)cc3)C[C@H]2CS1 [Example 12, (4aR,6R,8aS)-6-(4-chlorophenyl)-8a-(2,4-difluorophenyl)-4,4a,5,6,8,8a-hexahydropyrano[3,4-d][1,3]thiazin-2-amine]
6 nM	0.008 nM	Cc1cc([C@H]2C[C@H]3CSC(N)=N[C@@]3(c3ccc(F)cc3F)CO2)ccc1F [Example 8, (4aR,6R,8aS)-8a-(2,4-difluorophenyl)-6-(4-fluoro-3-methylphenyl)-4,4a,5,6,8,8a-hexahydropyrano[3,4-d][1,3]thiazin-2-amine]
39 nM	0.025 nM	NC1=N[C@@]2(c3ccc(F)cc3F)CO[C@@H](c3ccc(F)cc3F)C[C@H]2CS1 [Example 4, (4aR,6R,8aS)-6,8a-bis(2,4-difluorophenyl)-4,4a,5,6,8,8a-hexahydropyrano[3,4-d][1,3]thiazin-2-amine]
24 nM	0.005 nM	Cc1ccc([C@H]2C[C@H]3CSC(N)=N[C@@]3(c3ccc(F)cc3F)CO2)cc1 [Example 6, (4aR,6R,8aS)-8a-(2,4-difluorophenyl)-6-(4-methylphenyl)-4,4a,5,6,8,8a-hexahydropyrano[3,4-d][1,3]thiazin-2-amine]
970 nM	0.665 nM	Cc1ccccc1[C@H]1C[C@H]2CSC(N)=N[C@@]2(c2ccc(F)cc2F)CO1 [Example 7, (4aR,6R,8aS)-8a-(2,4-difluorophenyl)-6-(2-methylphenyl)-4,4a,5,6,8,8a-hexahydropyrano[3,4-d][1,3]thiazin-2-amine]
86 nM	0.055 nM	NC1=N[C@@]2(c3ccc(F)cc3F)CO[C@@H](c3ccccc3F)C[C@H]2CS1 [Example 3, (4aR,6R,8aS)-8a-(2,4-difluorophenyl)-6-(2-fluorophenyl)-4,4a,5,6,8,8a-hexahydropyrano[3,4-d][1,3]thiazin-2-amine]
397 nM	0.248 nM	COc1ccc(F)c([C@H]2C[C@H]3CSC(N)=N[C@@]3(c3ccc(F)cc3F)CO2)c1 [Example 22, (4aR,6R,8aS)-8a-(2,4-difluorophenyl)-6-(2-fluoro-5-methoxyphenyl)-4,4a,5,6,8,8a-hexahydropyrano[3,4-d][1,3]thiazin-2-amine]
99 nM	0.012 nM	N#Cc1cccc([C@H]2C[C@H]3CSC(N)=N[C@@]3(c3ccc(F)cc3F)CO2)c1 [Example 29, 3-[(4aR,6R,8aS)-2-amino-8a-(2,4-difluorophenyl)-4,4a,5,6,8,8a-hexahydropyrano[3,4-d][1,3]thiazin-6-yl]benzonitrile]
29 nM	0.018 nM	COc1ccc([C@H]2C[C@H]3CSC(N)=N[C@@]3(c3ccc(F)cc3F)CO2)cc1 [Example 16, (4aR,6R,8aS)-8a-(2,4-difluorophenyl)-6-(4-methoxyphenyl)-4,4a,5,6,8,8a-hexahydropyrano[3,4-d][1,3]thiazin-2-amine]
97 nM	0.222 nM	NC1=N[C@@]2(c3ccc(F)cc3F)CO[C@@H](c3cccc(C(F)(F)F)c3)C[C@H]2CS1 [Example 13, (4aR,6R,8aS)-8a-(2,4-difluorophenyl)-6-[3-(trifluoromethyl)phenyl]-4,4a,5,6,8,8a-hexahydropyrano[3,4-d][1,3]thiazin-2-amine]
